Results reported in the supplement of paper PMC10307832.

Columns and labels:
Experiment in all cases: relative viability (nuclei count vs DMSO), 5 days (fraction); higher = more cells survive
Carfilzomib + Linsitinib = compound: CC(C)C[C@H](NC(=O)[C@H](CCc1ccccc1)NC(=O)CN1CCOCC1)C(=O)N[C@@H](Cc1ccccc1)C(=O)N[C@@H](CC(C)C)C(=O)[C@@]1(C)CO1 [Carfilzomib] + C[C@]1(O)C[C@@H](c2nc(-c3ccc4ccc(-c5ccccc5)nc4c3)c3c(N)nccn32)C1 [Linsitinib] (partner 1 µM)
Method in brief: (§1)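 Nuclei were stained with Hoechst during a one-step fixation (final 0.05% Triton X-100, 1% formaldehyde, 1 ug/ml Hoechst) carried out 5 days after dosing, then counted on 4× images. The cells, lung cancer lines in 1536-well plates, had been dosed by pin tool the day after seeding with one drug alone or a fixed anchor-drug dose plus five library-drug doses (not always all listed) in √10 steps. Relative viability is the nuclei count in treated wells divided by that in vehicle wells, and each value is the median of duplicate plates.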

Crizotinib + AZD7762 = compound: C[C@@H](Oc1cc(-c2cnn(C3CCNCC3)c2)cnc1N)c1c(Cl)ccc(F)c1Cl [Crizotinib] + NC(=O)Nc1cc(-c2cccc(F)c2)sc1C(=O)N[C@H]1CCCNC1 [AZD7762] (partner 0.2 µM)
Method in brief: as §1

Olaparib + Luminespib = compound: O=C(c1cc(Cc2n[nH]c(=O)c3ccccc23)ccc1F)N1CCN(C(=O)C2CC2)CC1 [Olaparib] + CCNC(=O)c1noc(-c2cc(C(C)C)c(O)cc2O)c1-c1ccc(CN2CCOCC2)cc1 [Luminespib] (partner 0.01 µM)
Method in brief: as §1

Olaparib + Decitabine = compound: O=C(c1cc(Cc2n[nH]c(=O)c3ccccc23)ccc1F)N1CCN(C(=O)C2CC2)CC1 [Olaparib] + Nc1ncn([C@H]2C[C@H](O)[C@@H](CO)O2)c(=O)n1 [Decitabine] (partner 2 µM)
Method in brief: as §1

| Cell Line | relative viability (Carfilzomib + Linsitinib; first compound 0.001 µM) | relative viability (Carfilzomib + Linsitinib; first compound 0.003162 µM) | relative viability (Carfilzomib + Linsitinib; first compound 0.01 µM) | relative viability (Carfilzomib + Linsitinib; first compound 0.03162 µM) | relative viability (Carfilzomib + Linsitinib; first compound 0.1 µM) | relative viability (Crizotinib + AZD7762; first compound 0.01 µM) | relative viability (Crizotinib + AZD7762; first compound 0.03162 µM) | relative viability (Crizotinib + AZD7762; first compound 0.1 µM) | relative viability (Crizotinib + AZD7762; first compound 0.3162 µM) | relative viability (Crizotinib + AZD7762; first compound 1 µM) | relative viability (Olaparib + Luminespib; first compound 0.08 µM) | relative viability (Olaparib + Luminespib; first compound 0.253 µM) | relative viability (Olaparib + Luminespib; first compound 2.53 µM) | relative viability (Olaparib + Luminespib; first compound 8 µM) | relative viability (Olaparib + Decitabine; first compound 0.08 µM) | relative viability (Olaparib + Decitabine; first compound 0.253 µM) | relative viability (Olaparib + Decitabine; first compound 2.53 µM) | relative viability (Olaparib + Decitabine; first compound 8 µM) |
| --- | --- | --- | --- | --- | --- | --- | --- | --- | --- | --- | --- | --- | --- | --- | --- | --- | --- | --- |
| NCI-H441 | 0.569 | 0.451 | 0.233 | 0.104 | 0.115 | 0.998 | 1.03 | 1.12 | 1.09 | 1.21 | 0.38 | 0.314 | 0.318 | 0.281 | 0.257 | 0.197 | 0.243 | 0.188 |
| ABC-1 | 0.837 | 0.665 | 0.527 | 0.235 | 0.242 | 0.902 | 0.848 | 0.695 | 0.671 | 1.34 | 0.816 | – | – | 0.354 | 1.07 | – | 0.836 | 0.718 |
| NCI-H2170 | – | – | – | – | – | 0.761 | 0.894 | 0.835 | 0.852 | 0.858 | 0.735 | 0.651 | 0.594 | 0.5 | 0.422 | 0.369 | 0.277 | 0.253 |
| NCI-H1944 | 1.14 | 1.24 | 1.17 | 1.2 | 0.489 | 0.449 | 0.566 | 0.53 | 0.446 | 0.489 | 0.741 | 0.625 | 0.534 | 0.534 | 0.397 | 0.401 | 0.336 | 0.273 |
| PC-3 [JPC-3] | 1 | 0.881 | 1 | 0.86 | 0.466 | 0.687 | – | 0.907 | – | 0.772 | 0.832 | 0.749 | 0.587 | 0.592 | 0.82 | – | 0.761 | 0.741 |
| NCI-H1648 | – | – | – | – | – | – | 0.513 | 0.684 | 0.467 | 0.723 | – | – | – | – | 0.431 | 0.384 | – | 0.44 |
| NCI-H1975 | 0.885 | 0.896 | 0.562 | 0.129 | 0.132 | 0.641 | 0.784 | 0.771 | 0.684 | 0.636 | 0.169 | 0.174 | 0.258 | 0.234 | 0.339 | 0.312 | 0.331 | 0.248 |
| NCI-H650 | 0.389 | 1.19 | 0.958 | 0.27 | 0.176 | 1.03 | 0.979 | 0.815 | – | 0.945 | 0.924 | 0.816 | 0.577 | 0.533 | 0.266 | 0.293 | 0.241 | 0.281 |
| NCI-H1623 | – | – | – | – | – | – | – | – | – | – | 0.492 | 0.484 | 0.384 | 0.331 | – | – | – | – |
| NCI-H1755 | 0.984 | 0.986 | 0.982 | 0.97 | 0.218 | 0.407 | 0.423 | 0.539 | 0.411 | 0.455 | 0.743 | 0.411 | 0.41 | 0.418 | 0.666 | 0.621 | 0.577 | 0.562 |
| NCI-H1666 | 0.844 | 0.796 | 0.79 | 0.545 | 0.24 | 0.78 | 0.899 | 0.828 | 0.825 | – | 1.1 | 0.879 | 0.889 | 0.697 | 0.778 | 0.604 | 0.636 | 0.597 |
| NCI-H1792 | 0.492 | 0.632 | 0.365 | 0.633 | 0.339 | 0.634 | 0.881 | 0.626 | – | 0.63 | 0.484 | 0.359 | 0.409 | 0.425 | 0.336 | 0.264 | 0.234 | 0.19 |
| CAL-12T | 0.836 | 0.923 | 0.876 | 0.57 | 0.112 | 0.527 | 0.679 | 0.624 | 0.635 | 0.694 | 0.604 | 0.376 | 0.365 | 0.355 | – | – | – | – |
| EPLC-272H | 1.04 | 1.32 | 1.16 | 0.193 | 0.0783 | 0.209 | 0.19 | 0.263 | – | 0.35 | 0.291 | 0.321 | 0.254 | 0.279 | 0.478 | 0.349 | 0.302 | 0.329 |
| IA-LM | 0.58 | 0.687 | 0.836 | 0.0717 | 0.0278 | – | – | – | – | – | – | – | – | – | – | – | – | – |
| PC-14 | 1.09 | 0.937 | 1.08 | 0.215 | 0.12 | 0.342 | 0.392 | 0.401 | 0.355 | 0.382 | 0.199 | – | 0.134 | 0.156 | 0.153 | 0.124 | 0.101 | 0.105 |
| NCI-H1703 | 0.91 | 1.22 | 0.44 | 0.132 | 0.0996 | 0.157 | 0.172 | 0.126 | 0.116 | 0.125 | – | – | – | – | – | – | – | – |
| NCI-H1437 | 0.965 | 1.08 | 0.984 | 0.388 | 0.117 | 1.03 | 1.13 | 1.09 | 1.13 | 1.09 | 1.26 | 1.08 | 1.06 | 0.809 | 0.458 | 0.391 | 0.434 | 0.386 |
| NCI-H358 | 0.793 | 0.977 | 0.717 | 0.15 | 0.16 | – | 0.533 | 0.469 | 0.458 | 0.492 | 0.324 | 0.253 | 0.24 | 0.206 | 0.148 | 0.157 | 0.23 | 0.138 |
| LK-2 | 0.815 | 0.837 | 0.497 | 0.18 | 0.177 | 0.533 | 0.293 | 0.341 | 0.204 | 0.398 | 0.176 | 0.212 | 0.214 | 0.181 | 0.258 | 0.254 | 0.271 | 0.184 |
| H3255 | 0.942 | 1.06 | 0.995 | 0.739 | 0.373 | 0.833 | 0.88 | 0.819 | – | 0.923 | 0.885 | 0.832 | 0.907 | 0.819 | 0.548 | 0.516 | 0.621 | 0.444 |
